Usually pIC50 stands for the negative decadic logarithm of the IC50, by convention in mol/L.

Experimental findings from patent EP4772514A1, “MACROCYCLIC COMPOUNDS, PREPARATION METHOD THEREFOR, AND USE THEREOF” (Genfleet Therapeutics (Shanghai) Inc., priority 2023, dated 2025) are described below.

pIC50: −log10 of the molar value. Like-named read-outs stand apart in the source and are kept apart here.

What all share (type): cell-based
One experiment concerns AsPC-1 cells. Description: 3D cell proliferation assay (CellTiter Glo-3D) in AsPC-1 cells. The settings on record: AsPC-1, human pancreatic cancer cell strain, KRAS G12D mutation, 3D culture, 2% FBS, 5 days, read-out: AsPC-1 AP IC50. The gist of the method: (§1)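 KRAS^G12V NCI-H441 and KRAS^G12D AsPC-1 cells (800 cells/well each) grown in RPMI-1640 with 2% FBS and treated the day after seeding with 3.16-fold compound dilutions (0.1% DMSO) for 5 days at 37 °C. Viability by CellTiter-Glo 3D luminescence; inhibition versus DMSO and cell-free controls, IC50 from four-parameter fit.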

The test system of another experiment is NCI-H441 cells. Nature of the experiment: 3D cell proliferation assay (CellTiter Glo-3D) in NCI-H441 cells. The conditions noted are these: NCI-H441, human lung cancer cell strain, KRAS G12V mutation, 3D culture, 2% FBS, 5 days, read-out: H441 AP IC50. Put shortly:
as §1
(In general: In ATP-based viability assays light output follows the ATP content of the culture.)

Experiment [1] concerns p-ERK. Description: Cell p-ERK assay (HTRF, Advance ERK phospho-T202/Y204 kit) in AsPC-1 cells. The conditions noted are these: AsPC-1, human pancreatic cancer cell strain, KRAS G12D mutation, 3 h compound incubation. The gist of the method: (§2)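 AsPC-1 (KRAS G12D) or NCI-H441 (KRAS G12V) cells seeded overnight, then treated 3 h at 37 °C with compound (0.1% DMSO) in RPMI-1640/10% FBS. Lysates assayed for ERK phospho-T202/Y204 by HTRF; inhibition vs DMSO and blank wells, IC50 from four-parameter fit.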

Experiment [2] deals with p-ERK. Nature of the experiment: Cell p-ERK assay (HTRF, Advance ERK phospho-T202/Y204 kit) in NCI-H441 cells. The conditions noted are these: NCI-H441, human non-small cell lung cancer cell strain, KRAS G12V mutation, 3 h compound incubation. Put shortly: as §2
In general terms: In TR-FRET formats the signal depends on donor and acceptor labels being close together.

For “(1r,2R,3S)-N-((4^2Z,8^3R,2E,6R)-1^1-ethyl-(Sa)-1^5-(2-((S)-1-methoxyethyl)-5-(4-methylpiperazin-1-yl)pyridin-3-yl)-12,12-dimethyl-7,9-dioxo-8^1,8^2,8^3,8^4,8^5,8^6-hexahydro-1^1H-10-oxa-4(4,2)-thiazola-8(1,3)-pyridazina-1(3,4)-pyrrolacyclotridecaphan-2-en-6-yl)-2,3-dimethylcyclopropane-1-carboxamide [Compound Z8-1]”, the pIC50 in the experiment on AsPC-1 cells was 7.19; with NCI-H441 cells it was 7.20; in the experiment on p-ERK [1], 6.99; in the experiment with p-ERK [2], 7.01.

For the compound `CCn1cc2c(c1-c1cc(C#CCN3CCC(C#N)(CN)CC3)cnc1[C@H](C)OC)CC(C)(C)COC(=O)[C@@H]1CCCN(N1)C(=O)[C@@H](NC(=O)[C@H]1[C@@H]3COC[C@@H]31)Cc1nc(co1)/C=C/2` (atropisomer, axis not shown; (Ra)) [Compound Z89, (1R,5S,6r)-N-((4^2Z,8^3S,2E, 6S)-(Ra)-1^5-(5-(3-(4-(aminomethyl)-4-cyanopiperidin-1-yl)prop-1-yn-1-yl)-2-((S)-1-methoxyethyl)pyridin-3-yl)-1^1-ethyl-12,12-dimethyl-7,9-dioxo-8^1,8^2,8^3,8^4,8^5,8^6-hexahydro-1^1 H-10-oxa-4(4,2)-oxazola-8(1,3)-pyridazina-1(3,4)-pyrrolacyclotridecaphan-2-en-6-yl)-3-oxabicyclo[3.1.0]hexane-6-carboxamide], the pIC50 in the experiment with AsPC-1 cells (ASPC1, 120 h) is 9.96; in the experiment with NCI-H441 cells (Homo sapiens, NCI-H441, 120 h), 9.82; with p-ERK [1] (ASPC1), 9.89; with p-ERK [2] (Homo sapiens, NCI-H441, 3 h), 9.64.

`CO[C@@H](C)c1ncc(C#CCN2CCS(=O)(=O)CC2)cc1-c1c2c(nn1C(C)C)/C=C/c1csc(n1)C[C@H](NC(=O)[C@H]1[C@H](C)[C@@H]1C)C(=O)N1CCC[C@H](N1)C(=O)OCC(C)(C)C2` (single isomer, unassigned) [Compound Z15]: the pIC50 was 7.98 in the experiment on AsPC-1 cells (ASPC1, 120 h); 8.37 with NCI-H441 cells (Homo sapiens, NCI-H441, 120 h); 7.69 in the experiment with p-ERK [1] (ASPC1); 8.17 in the experiment on p-ERK [2] (Homo sapiens, NCI-H441, 3 h).

As for `CCn1c(F)c2c(c1-c1cc(C#CCN3CCC(C#N)CC3)cnc1[C@H](C)OC)CC(C)(C)COC(=O)[C@@H]1CCCN(N1)C(=O)[C@@H](NC(=O)[C@H]1[C@H](C)[C@@H]1C)Cc1nc(cs1)/C=C/2` (atropisomer, axis not shown; (Ra)) [Compound Z139, (1r, 2R, 3S)-N-((4^2Z, 8^3S,2E,6S)-(Ra)-1^5-(5-(3-(4-cyanopiperidin-1-yl)prop-1-yn-1-yl)-2-((S)-1-methoxyethyl)pyridin-3-yl)-1^1-ethyl-1^2-fluoro-12,12-dimethyl-7,9-dioxo-8^1,8^1,8^1,8^4,8^5,8^6-hexahydro-1^1H-10-oxa-4(4,2)-thiazola-8(1,3)-pyridazina-1(3,4)-pyrrolacyclotridecaphan-2-en-6-yl)-2,3-dimethylcyclopropane-1-carboxamide], the pIC50 with AsPC-1 cells (ASPC1, 120 h) was 10.00; in the experiment with NCI-H441 cells (Homo sapiens, NCI-H441, 120 h), 9.92; in the experiment on p-ERK [1] (ASPC1), 9.40; in the experiment with p-ERK [2] (Homo sapiens, NCI-H441, 3 h), 9.38.

`CO[C@@H](C)c1ncc(C#CCN2CCS(=O)(=O)CC2)cc1-c1c2c(nn1C(C)C)/C=C/c1csc(n1)C[C@H](NC(=O)[C@H]1[C@H](C)[C@@H]1C)C(=O)N1CCC[C@H](N1)C(=O)OCC(C)(C)C2` (atropisomer, axis not shown) [Compound Z15A, (1r,2R,3S)-N-((4^2Z,8^3S,2E,6S)-1^5-(5-(3-(1,1-dioxidothiomorpholino)prop-1-yn-1-yl)-2-((S)-1-methoxyethyl)pyridin-3-yl)-1^1-isopropyl-12,12-dimethyl-7,9-dioxo-8^1,8^2,8^3,8^4,8^5 3^6-hexahydro-1^1H-10-oxa-4(4,2)-thiazola-8(1,3)-pyridazina-1(3,4)-pyrrolacyclotridecaphan-2-en-6-yl)-2,3-dimethylcyclopropane-1-carboxamide]: the pIC50 is 7.64 in the experiment on AsPC-1 cells (ASPC1, 120 h); 8.12 in the experiment on NCI-H441 cells (Homo sapiens, NCI-H441, 120 h); 7.52 in the experiment on p-ERK [1] (ASPC1); 8.10 with p-ERK [2] (Homo sapiens, NCI-H441, 3 h).

`CCn1c(F)c2c(c1-c1cc(C#CCN3CCS(=O)(=O)CC3)cnc1[C@H](C)OC)CC(C)(C)COC(=O)[C@@H]1CCCN(N1)C(=O)[C@@H](NC(=O)[C@H]1[C@H](C)[C@@H]1C)Cc1nc(cs1)/C=C/2` (atropisomer, axis not shown; (Ra)) [Compound Z80, (1r,2R,3S)-N-((4^2Z,8^3S,2E,6S)-(Ra)-1^5-(5-(3-(1,1-dioxidothiomorpholino)prop-1-yn-1-yl)-2-((S)-1-methoxyethyl)pyridin-3-yl)-1^1-ethyl-1^2-fluoro-12,12-dimethy^l-7,9-dioxo-8^1,8^2,8^3,8^4,8^5,8^6-hexahydro-1^1H-10-oxa-4(4,2)-thiazola-8(1,3)-pyridazina-1(3,4)-pyrrolacyclotridecaphan-2-en-6-yl)-2,3-dimethylcyclopropane-1-carboxamide]: the negative logarithm of the IC50 (pIC50) was 9.80 in the experiment on AsPC-1 cells (ASPC1, 120 h); 9.74 in the experiment on NCI-H441 cells (Homo sapiens, NCI-H441, 120 h); 9.62 in the experiment on p-ERK [1] (ASPC1); 9.70 in the experiment with p-ERK [2] (Homo sapiens, NCI-H441, 3 h).

On to `CCn1cc2c(c1-c1cc(C#CCN3CCC(C#N)CC3)cnc1[C@H](C)OC)CC(C)(C)COC(=O)[C@@H]1CCCN(N1)C(=O)[C@@H](NC(=O)[C@H]1[C@@H]3COC[C@@H]31)Cc1nc(cs1)/C=C/2` (atropisomer, axis not shown; (Ra)) [Compound Z50, (1R,5S,6r)-N-((4^2Z,8^3S,2E,6S)-(Ra)-1^5-(5-(3-(4-cyanopiperidin-1-yl)prop-1-yn-1-yl)-2-((S)-1-methoxyethyl)pyridin-3-yl)-1^1-ethyl-12,12-dimethyl-7,9-dioxo-8^1,8^2,8^3,8^4,8^5,8^6-hexahydro-1^1H-10-oxa-4(4,2)-thiazola-8(1,3)-pyridazina-1(3,4)-pyrrolacyclotridecaphan-2-en-6-yl)-3-oxabicyclo[3.1.0]hexane-6-carboxamide], for which the pIC50 with AsPC-1 cells (ASPC1, 120 h) is 9.72; with NCI-H441 cells (Homo sapiens, NCI-H441, 120 h), 9.85; in the experiment on p-ERK [1] (ASPC1), 9.96; in the experiment on p-ERK [2] (Homo sapiens, NCI-H441, 3 h), 9.54.

For `CCn1cc2c(c1-c1cc(C#CCN3CCS(=O)(=O)CC3)cnc1[C@H](C)OC)CC(C)(C)COC(=O)[C@@H]1CCCN(N1)C(=O)[C@@H](NC(=O)[C@H]1[C@H](C)[C@@H]1C)Cc1nc(cs1)/C=C/2` (atropisomer, axis not shown; (Ra)) [Compound Z118, (1r,2R,3S)-N-((4^2Z,8^3S,2E,6S)-(Ra)-1^5-(5-(3-(1,1-dioxidothiomorpholino)prop-1-yn-1-yl)-2-((S)-1-methoxyethyl)pyridin-3-yl)-1^1-ethyl-12,12-dimethyl-7,9-dioxo-8^1,8^2,8^3,8^4,8^5,8^6-hexahydro-1^1H-10-oxa-4(4,2)-thiazola-8(1,3)-pyridazina-1(3,4)-pyrrolacyclotridecaphan-2-en-6-yl)-2,3-dimethylcyclopropane-1-carboxamide], the pIC50 is 9.62 in the experiment on AsPC-1 cells (ASPC1, 120 h); 9.55 with NCI-H441 cells (Homo sapiens, NCI-H441, 120 h); 9.70 in the experiment on p-ERK [1] (ASPC1); 9.33 in the experiment with p-ERK [2] (Homo sapiens, NCI-H441, 3 h).

In the case of `CCn1cc2c(c1-c1cc(C#CCN3CCC(C#N)(CN)CC3)cnc1[C@H](C)OC)CC(C)(C)COC(=O)[C@@H]1CCCN(N1)C(=O)[C@@H](NC(=O)[C@H]1[C@@H]3COC[C@@H]31)Cc1nc(cs1)/C=C/2` (atropisomer, axis not shown; (Ra)) [Compound Z66], the pIC50 in the experiment with AsPC-1 cells (ASPC1, 120 h) was 9.62; in the experiment on NCI-H441 cells (Homo sapiens, NCI-H441, 120 h), 9.74; in the experiment on p-ERK [1] (ASPC1), 9.80; in the experiment on p-ERK [2] (Homo sapiens, NCI-H441, 3 h), 9.42.
